Source: patent US10500188B1, “Use of a polyenylpyrrole derivative in preparation of anti-oral cancer drugs” (TZU CHI UNIVERSITY, priority 2019, dated 2019)

Tests used:
normal oral cells (K2) = experiment: MTT cell proliferation assay, normal oral cells (K2); format: cell-based; conditions: 100, 500, 800, 1000 nM, 24 and 48 hr, FIG. 2A
Procedure: MTT (3-(4,5-dimethylthiazol-2-yl)-2,5-diphenyltetrazolium bromide) assay is used for measuring cell proliferation. Add 3000 OSCC cells (SCC-15 and TW2.6) and 5000 immortalized cells (K2) into each well of a 96-well plate. Next day add the present polyenylpyrrole derivative (F236B) into the respective well and remove culture medium after 24 hours (hr) and 48 hr respectively. Then add MTT dissolved in culture medium (150 μL per well) except the background wells and react for 90 min. Lastly remove solution in the culture plate and add DMSO (150 μL per well) into the culture plate for dissolving the pigment. After being dissolved completely, use the ELISA machine to measure absorbance at 570 nm. […] 2A-2C.

OSCC cells (SCC-15) = experiment: MTT cell proliferation assay, OSCC cells (SCC-15); format: cell-based, human
Procedure: (§1) MTT (3-(4,5-dimethylthiazol-2-yl)-2,5-diphenyltetrazolium bromide) assay is used for measuring cell proliferation. Add 3000 OSCC cells (SCC-15 and TW2.6) and 5000 immortalized cells (K2) into each well of a 96-well plate. Next day add the present polyenylpyrrole derivative (F236B) into the respective well and remove culture medium after 24 hours (hr) and 48 hr respectively. Then add MTT dissolved in culture medium (150 μL per well) except the background wells and react for 90 min. Lastly remove solution in the culture plate and add DMSO (150 μL per well) into the culture plate for dissolving the pigment. After being dissolved completely, use the ELISA machine to measure absorbance at 570 nm. The concentration of the polyenylpyrrole derivative (F236B) used is 10, 50, 80, 100, and 200 nM respectively, as results shown in FIG. 2A-2C.
Also refer to FIG. 2C, test results of OSCC cells (TW2.6) treated with 10, 50, 80, 100, and 200 nM polyenylpyrrole derivative (F236B) respectively are disclosed. […] Moreover, the present polyenylpyrrole derivative (F236B) not only has effects on the OSCC cells of Western people (SCC-15) but also affects the OSCC cells of Asians (TW2.6). Thus the polyenylpyrrole derivative (F236B) can be widely used in the OSCC cells. In the previous tests for assessment of the effects of natural products on cancer cells, the unit of the concentration unit used is μM. […]

[1] = test system: TW2.6 human oral squamous cell carcinoma (OSCC) cell line; experiment: MTT cell proliferation assay, OSCC cells (TW2.6); format: cell-based; conditions: 10, 50, 80, 100, 200 nM, 24 and 48 hr, FIG. 2C
Text: The present polyenylpyrrole derivative is used to inhibit oral cancer cells. The oral cancer cell can be oral squamous cell carcinoma (OSCC) cell (SCC-15 cell line). The TW2.6 human oral squamous cell carcinoma (OSCC) cell line obtained from Asian people can also be used in cell proliferation assay.
as §1
Also refer to FIG. 2C, test results of OSCC cells (TW2.6) treated with 10, 50, 80, 100, and 200 nM polyenylpyrrole derivative (F236B) respectively are disclosed. […]

SCC-15 xenograft tumor = experiment: Cell-line-derived xenograft model (SCC-15 cell line); format: in vivo, NOD-SCID male mice; conditions: 1 mg/kg s.c. into neck, vs PBS control, FIG. 2D
Text: (§2) In order to learn whether in vivo test results of OSCC cells (SCC-15, TW2.6) are consistent with in vitro test results of the same, a cell-line-derived xenograft model (SCC-15 cell line) and a patient-derived xenograft (PDX) model of patients with oral cancers are used to test xenograft tumorigenicity of oral cancer cells and the results are shown in FIG. 2D-2F.
As to the cell-line-derived xenograft model, six-to-eight-week-old NOD-SCID male mice are used. About 5×10^6 SCC-15 cells are subcutaneously injected into the right abdominal of the mouse. There are two experimental groups. The mouse in the first group (I) is injected with the polyenylpyrrole derivative (F236B) the day after being injected with the OSCC cells. In the second group (II), the mouse is injected with the polyenylpyrrole derivative (F236B) when the tumor grows to a size with a diameter of about […]. The polyenylpyrrole derivative (F236B) at a dose of 1 mg/kg is subcutaneously injected into the neck of the mouse. Samples are taken when the cells grow to a size with a diameter of about 1 cm (21-day).

[2] = test system: patient oral cancer tissue xenograft; experiment: Patient-derived xenograft (PDX) model of patients with oral cancers; format: in vivo, NOD-SCID male mice
Text: as §2
After approval of the institutional review board (IRB), oral cancer tissues of patients are collected at the Department of Otolaryngology, Hualien Tzu Chi Hospital during the period from Jul. 1, 2016 to Jun. 30, 2017. The PDX model has been established by immersing and washing the samples collected in Penicillin/Streptomycin diluted 2-fold with PBS, and using six-to-eight-week-old NOD-SCID male mice. After injection of a 0.01 mL/g body weight dose of ketamine/xylazine into a mouse, a 1.5×1.5 cm^2 skin surface at the right abdomen of the anesthetized mouse is treated with a depilatory agent to remove hair. Use tincture of iodine as a disinfectant and cut a wound of […] on the mouse skin and suture the wound after tumor tissue being applied. During recovery period, the rearing cage is set on the heating pad and turned back to the rearing rack after recovery. After the surgery, observe the mouse day by day and then get the mouse out of the cage when the tumor reaches a diameter of about 1 cm. […]

[3] = test system: prostate apoptosis response-4 (Par-4); experiment: Expression of Par-4 in OSCC cells; format: cell-based; conditions: FIG. 3C
Procedure: Also refer to FIG. 3D and FIG. 3E. The results of the SC group (SCC-15 cell line without the knockdown Par-4 gene) treated with 10 nM, 50 nM, 80 nM, 100 nM, and 200 nM polyenylpyrrole derivative (F236B) for 24 hours and 48 hours respectively are shown in FIG. 3D. The results of the Par-4-KD group (SCC-15 cell line with the knockdown Par-4 gene) treated with 10 nM, 50 nM, 80 nM, 100 nM, and 200 nM polyenylpyrrole derivative (F236B) for 24 hours and 48 hours respectively are shown in FIG. 3E.

SCC-15 cells [4] = experiment: Tumor sphere formation on matrigel; format: cell-based, human; conditions: compared with the Par-4-KD group; FIG. 4
Procedure: Refer to FIG. 4, the test results of the tumor sphere formation ability of the OSCC cells are shown. In order to culture cells (SCC-15) for tumor sphere formation, each well of a 24-well plate is coated with 150 μL growth factor reduced matrigel, then placed in 4° C. refrigerator and shaken for 15 minutes to make the growth factor reduced matrigel distribute evenly therein. Place in 37° C. incubator for 1 hour. After firm matrigel formation, each well is added with 5000 SCC-15 cells and change culture medium every day.

[5] = test system: SCC-15 cell line without the knockdown Par-4 gene; experiment: Migration test, SC group; format: cell-based, human; conditions: 100 nM and 200 nM; 0, 3, 9 hr; FIG. 5A
Procedure: Then migration and movement of the Par-4-KD group and the SC group treated with polyenylpyrrole derivative (F236B) is tested and the results are shown in FIG. 5A-5B and FIG. 6.
The results of the Par-4-KD group (SCC-15 cell line with the knockdown Par-4 gene) treated with 100 nM and 200 nM polyenylpyrrole derivative (F236B) for 0, 3, and 9 hrs respectively are shown in FIG. 5B.

SCC-15 cells [6] = experiment: Transwell assay for movement of tumor cells; format: cell-based, human; conditions: 24 and 48 hrs, compared with the Par-4-KD group, FIG. 6
Procedure: Refer to FIG. 6, a transwell assay is used for testing movement of tumor cells. A 24-well transwell chamber with 8.0 μm polycarbonate membrane (6.5 mm) therein is used. Add 100 μL serum free media into the upper layer and 500 μL media containing 10% serum into the lower layer. Then add 5000 cells (SCC-15) into the upper layer of each well, incubate overnight and add the polyenylpyrrole derivative (F236B). Remove the upper layer after 24 hrs and 48 hrs, respectively and wash 2 times with PBS. Add methanol (500 μL per well) at 4° C. for 1 hr for fixation and wash 2 times with PBS. Next, stain with crystal violet for 10 min and wash 2 times with PBS. Lastly observe and count the number of cells moved to the lower layer.

[7] = test system: IL-17RA in OSCC cells (SCC-15); experiment: Western blot of IL-17RA expression; format: cell-based, human; conditions: SCC-15, Western blot, vs DMSO control; FIG. 7
Procedure: Western blot is used to detect expression of IL-17RA in the OSCC cells (SCC-15) treated with the polyenylpyrrole derivative (F236B). The proteins are separated by SDS-PAGE gel and then transferred to a Polyvinylidene difluoride (PVDF) membrane. Then soak in 5% BSA (bovine serum albumin) for 1 hour for blocking. After removal of BSA and addition of primary antibodies, place the membrane in 4° C. refrigerator with constant shaking for 16 hr and wash 3 times with TBST-Tween20 (TBST) (each takes 15 min). Next add secondary antibodies and shake at room temperature for 1 hour. Then wash 3 times with TBST and each step takes 15 min. Lastly use enhanced chemiluminescent (ECL) reagent (RPN2106 ECL™ Western Blotting Reagent) for imaging and UVP BioSpectrum to detect images. […] Therefore, the reduction effect of the polyenylpyrrole derivative (F236B) on the expression of IL-17RA is associated with the tumor-suppressor function of the polyenylpyrrole derivative (F236B).

## CCOc1cc(/C=C/C=C/C=C/C=C/c2[nH]ccc2Cl)oc(=O)c1 [F236B]
Normal oral cells (K2)
  proliferation of normal oral cells (K2): doesn't affect the proliferation of normal oral cells
OSCC cells (SCC-15); MTT, 10, 50, 80, 100, 200 nM, 24 and 48 hr, FIG. 2B
  proliferation of OSCC cells (SCC-15): inhibits proliferation of the OSCC cells (SCC-15)
OSCC cells (SCC-15); SCC-15 without Par-4 knockdown, 10-200 nM, 24 and 48 hours, FIG. 3D
  proliferation of OSCC cells in the SC group: apparently reduced
[1]
  proliferation of OSCC cells (TW2.6): inhibits proliferation of the OSCC cells (TW2.6)
SCC-15 xenograft tumor; started the day after injection of OSCC cells, 21-day
  tumor volume, first group (I): significantly reduced
SCC-15 xenograft tumor; started when tumor diameter about 30 mm
  tumor volume, second group (II): significantly reduced
[2]; P3 mice, 1 mg/kg s.c. into neck, vs PBS control, FIG. 2E
  tumor volume, PDX: dramatically decreased
[2]; treated with F236B vs PBS, triplicate groups, FIG. 2F
  weight of the mouse: not affected
[3]
  expression of Par-4 in the OSCC cells: enhances expression of Par-4
SCC-15 cells [4]
  tumor sphere formation ability, SC group: obviously reduced
[5]
  migration ability, SC group: clearly reduced
SCC-15 cells [6]
  movement of the OSCC cells in the SC group: significantly reduced
[7]
  expression of IL-17RA: obviously inhibited
